Results on ten molecules are retold here after paper PMC8151276, “An Integrated Approach toward NanoBRET Tracers for Analysis of GPCR Ligand Engagement” (Molecules, 2021).

Common to all, as to type: binding
One assay has as its target T1, EDNRA (Homo sapiens, UniProt P25101).
T1 construct: purchased Promega (in-house HiBiT-GPCR construct library, NanoBRET)
T1 sequence (P25101 21-427): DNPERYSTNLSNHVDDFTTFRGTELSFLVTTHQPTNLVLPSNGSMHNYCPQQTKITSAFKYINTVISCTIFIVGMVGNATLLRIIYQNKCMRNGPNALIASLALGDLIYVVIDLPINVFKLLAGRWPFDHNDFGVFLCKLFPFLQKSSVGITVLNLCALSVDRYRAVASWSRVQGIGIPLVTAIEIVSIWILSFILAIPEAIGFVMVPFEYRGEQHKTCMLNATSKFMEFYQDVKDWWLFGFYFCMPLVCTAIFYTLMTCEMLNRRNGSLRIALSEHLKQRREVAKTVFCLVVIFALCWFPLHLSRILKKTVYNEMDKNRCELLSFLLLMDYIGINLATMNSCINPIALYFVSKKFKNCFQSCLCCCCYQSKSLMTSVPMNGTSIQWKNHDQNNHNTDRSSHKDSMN
Description: NanoBRET screen HiBiT-EDNRA in HEK293. As for the experimental part:
(§1) Each tracer candidate was screened across the entire library of HiBiT-GPCR constructs using NanoBRET as the detection modality. As depicted in Figure 4A, the specificity of interactions was evaluated through decrease in BRET due to competitive displacement of a bound tracer by excess parental compound. Each tracer was analyzed for binding to each HiBiT-GPCR fusion in the absence and in the presence of competing parental compound. Briefly, HEK293 cells were transfected with HiBiT-GPCR constructs diluted into promoterless DNA to reduce expression and maximize translocation to the cell surface. Each tracer candidate was then screened at concentrations of 1 μM and 0.1 μM across cells expressing these fusions. Cells were treated for 1.5 h with tracer either alone or in the presence of 20 μM competing parental compound (i.e., control). BRET was measured upon addition of purified LgBiT and subsequent complementation with HiBiT genetically fused to a GPCR. The specificity of interactions was assessed through a decrease in BRET signal due to competitive displacement of the bound tracer. To further gauge the robustness of these interactions, the fold response over the control (i.e., BRETtracer/BRETcontrol) was calculated. We chose a 1.5-fold response, which translates to ≥7-fold signal over noise as the minimal threshold required to score an interaction as positive. […]. Below we highlight the screening results obtained for our exemplary fluorescent tracers based on Clozapine, Amitriptyline and AZD1283.
(§2) HiBiT-GPCR DNA constructs were diluted in 10 mM Tris pH 8 to a final concentration of 0.01 μg/μL, arrayed in 96-well plates and stored at −20 °C. For transfection, HEK293 cells were suspended in Opti-MEM (without phenol red) supplemented with 2% fetal bovine serum (Seradigm) and 100 units/mL penicillin–streptomycin (Gibco) at a final concentration of 220,000 cells/mL and dispensed into white 96-well plates at 90 μL/well. Subsequent transfections and screens were carried using an Agilent Bravo Automated Liquid Handling Platform. First, the 96-well HiBiT DNA arrays were diluted 25-fold in Opti-MEM (without serum or phenol red) to a final concentration of 0.0004 μg/μL and 20 μL of the diluted DNAs were transferred into new 96-well plates. Next, promoterless carrier DNA (1 μg/μL) was diluted 25-fold (0.04 μg/μL) and then dispensed into the diluted arrays at 20 μL/well. Following brief mixing, Viafect transfection reagent (Promega) diluted 16-fold into Opti-MEM was dispensed into the plates at 40 μL/well. After mixing by pipetting, plates were incubated for 10 min on the pipetting station deck. The DNA-transfection reagent complexes were then added to plates containing cells. To facilitate the screen, 10 μL of DNA-transfection reagent complexes were added in duplicates to the top 4 and bottom 4 rows, resulting in two identical 48-well arrays per plate. Plates with transfected cells were incubated for 18–20 h at 37 °C/5% CO2. A screen of each tracer across the entire library using two different concentrations requires duplicate plates of transfected cells. Depending on the number of tracers being screened, transfections can be scaled up using the same ratios. The next day, for each tracer, four 20× screening solutions in tracer dilution buffer (Promega) were prepared: two duplicates at final concentration of 20 μM and two duplicates at a final concentration of 2 μM. A competing unmodified compound was added to one of each duplicate at a final concentration of 400 μM. The four resulting solutions were diluted 4-fold in Opti-MEM without serum or phenol red to generate 5× solutions (5 µM and 0.5 µM tracer +/− 100 μM competing compound). To screen the library, a BioTek MultiFlo FX liquid dispenser was used to dispense 22.5 µL of tracer solution to the top 4 rows and 22.5 µL tracer + competing compound solution to the 4 bottom rows. Plates were briefly mixed on an orbital shaker and incubated for 1.5 h at room temperature. […]
In general terms: Bioluminescence resonance energy transfer reports proximity on the nanometre scale.

In a further assay the target is T2, FZD4 (Homo sapiens, UniProt Q9ULV1).
T2 construct: purchased Promega (in-house HiBiT-GPCR construct library, NanoBRET)
T2 sequence (Q9ULV1 37-537): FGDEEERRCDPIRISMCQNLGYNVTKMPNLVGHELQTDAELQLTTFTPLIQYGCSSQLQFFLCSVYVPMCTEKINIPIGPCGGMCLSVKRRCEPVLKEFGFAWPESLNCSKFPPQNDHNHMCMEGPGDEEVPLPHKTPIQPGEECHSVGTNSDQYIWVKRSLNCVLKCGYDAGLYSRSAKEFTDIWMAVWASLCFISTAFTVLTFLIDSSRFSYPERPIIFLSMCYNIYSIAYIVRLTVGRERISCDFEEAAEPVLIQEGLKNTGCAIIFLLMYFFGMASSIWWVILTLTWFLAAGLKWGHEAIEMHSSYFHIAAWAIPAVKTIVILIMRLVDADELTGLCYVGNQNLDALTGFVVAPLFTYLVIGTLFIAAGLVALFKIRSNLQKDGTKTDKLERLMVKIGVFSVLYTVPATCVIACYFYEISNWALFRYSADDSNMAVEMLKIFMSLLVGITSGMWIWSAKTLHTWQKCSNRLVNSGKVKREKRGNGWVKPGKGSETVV
Description: NanoBRET screen HiBiT-FZD4 in HEK293. As to the method:
as §1, §2

The target in another assay is T3, TBXA2R (Homo sapiens, UniProt P21731).
T3 construct: purchased Promega (in-house HiBiT-GPCR construct library, NanoBRET)
T3 sequence (P21731 1-343): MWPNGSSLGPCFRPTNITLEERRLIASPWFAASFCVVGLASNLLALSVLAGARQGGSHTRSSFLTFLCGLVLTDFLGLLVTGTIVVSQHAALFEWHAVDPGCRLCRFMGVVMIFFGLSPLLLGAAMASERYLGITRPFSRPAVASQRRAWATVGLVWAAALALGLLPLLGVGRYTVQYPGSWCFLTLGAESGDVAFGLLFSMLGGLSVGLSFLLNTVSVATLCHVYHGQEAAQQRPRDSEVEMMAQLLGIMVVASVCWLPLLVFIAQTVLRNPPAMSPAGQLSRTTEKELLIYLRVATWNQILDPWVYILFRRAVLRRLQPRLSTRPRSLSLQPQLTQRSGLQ
Description: NanoBRET screen HiBiT-TBXA2R in HEK293. As for the experimental part:
as §1, §2

Where [1] appears, read: tracer at 0.1μM, listed as amitriptyline-b-2-NB590.
Where [2] appears, read: tracer at 1μM, listed as amitriptyline-b-2-NB590.

Each structure is given as a SMILES string.

For `CN1CCN(C2=Nc3cc(Cl)ccc3N(CC(=O)NCCOCCOCCOCCOCCNC(=O)CCc3ccc4n3[B-](F)(F)[N+]3=C(c5ccc[nH]5)C=CC3=C4)c3ccccc32)CC1` [Clozapine-c-2-NB590], the “NanoBRET Fold Response” value at EDNRA (EDNRA, 0.1μM tracer) came to 0.99; on EDNRA (EDNRA, 1μM tracer), 0.87; at FZD4 (FZD4, 0.1μM tracer), 1.02; on FZD4 (FZD4, 1μM tracer), 0.93; on TBXA2R (TBXA2R, 0.1μM tracer), 1.03; at TBXA2R (TBXA2R, 1μM tracer), 0.95.
Turning to `N#CN=C(NCCCOc1cccc(CN2CCCCC2)c1)NCCNC(=O)CCOCCOCCOCCOCCNC(=O)CCc1ccc2n1[B-](F)(F)[N+]1=C(c3ccc[nH]3)C=CC1=C2` [Aminopotentidine-2-NB590], the “NanoBRET Fold Response” value at EDNRA (EDNRA, tracer 0.1μM) stood at 1.03; on EDNRA (EDNRA, tracer 1μM), 1.04; at FZD4 (FZD4, tracer 0.1μM) it was 0.98; on FZD4 (FZD4, tracer 1μM) it was 1.07; at TBXA2R (TBXA2R, tracer 0.1μM), 0.98; at TBXA2R (TBXA2R, tracer 1μM), 1.04.
Consider `COc1ccc2c(n1)c(CCNC(C)=O)cn2CCNC(=O)CCc1ccc2n1[B-](F)(F)[N+]1=C(c3ccc[nH]3)C=CC1=C2` [Azamelatonin-1-NB590], for which the “NanoBRET Fold Response” value was found to be 0.91 at EDNRA (0.1μM tracer); 0.91 at EDNRA (1μM tracer); 0.91 at FZD4 (0.1μM tracer); 0.91 at FZD4 (1μM tracer); 0.84 at TBXA2R (0.1μM tracer); 0.94 on TBXA2R (1μM tracer).
Turning to `CC(C)N(CC[C@H](c1ccccc1)c1cc(CCNC(=O)c2ccc(CNC(=O)CCc3ccc4n3[B-](F)(F)[N+]3=C(c5ccc[nH]5)C=CC3=C4)cc2)ccc1O)C(C)C` [Tolterodine-BZ-NB590], the “NanoBRET Fold Response” value came to 1.05 at EDNRA (EDNRA, tracer 0.1μM); 1.11 at EDNRA (EDNRA, tracer 1μM); 0.93 at FZD4 (FZD4, tracer 0.1μM); 1.07 on FZD4 (FZD4, tracer 1μM); 0.91 at TBXA2R (TBXA2R, tracer 0.1μM); 1.03 at TBXA2R (TBXA2R, tracer 1μM).
With `O=C(CCc1ccc2n1[B-](F)(F)[N+]1=C(c3ccc[nH]3)C=CC1=C2)NCCOCCOCCNC(=O)OCCOCCN1CCN(C2=Nc3ccccc3Sc3ccccc32)CC1` [Quetiapine-a-2-NB590], the “NanoBRET Fold Response” value came to 1.03 on EDNRA (EDNRA, tracer 0.1μM); 1.04 on EDNRA (EDNRA, tracer 1μM); 0.96 at FZD4 (FZD4, tracer 0.1μM); 0.91 at FZD4 (FZD4, tracer 1μM); 1.01 at TBXA2R (TBXA2R, tracer 0.1μM); 1.05 on TBXA2R (TBXA2R, tracer 1μM).
As to `Cc1cc2c(s1)Nc1ccccc1N=C2N1CCN(CCCNC(=O)CCOCCOCCOCCOCCNC(=O)CCc2ccc3n2[B-](F)(F)[N+]2=C(c4ccc[nH]4)C=CC2=C3)CC1` [Olanzapine-a-2-NB590], the “NanoBRET Fold Response” value worked out at 1.02 at EDNRA (EDNRA, tracer 0.1μM); 1.10 at EDNRA (EDNRA, tracer 1μM); 1.00 at FZD4 (FZD4, tracer 0.1μM); 0.93 at FZD4 (FZD4, tracer 1μM); 0.95 on TBXA2R (TBXA2R, tracer 0.1μM); 1.02 at TBXA2R (TBXA2R, tracer 1μM).
For `CN(C)CCC=C1c2ccccc2CCc2ccc(C(=O)NCCNC(=O)CCOCCOCCOCCOCCNC(=O)CCc3ccc4n3[B-](F)(F)[N+]3=C(c5ccc[nH]5)C=CC3=C4)cc21` [Amitriptyline-b-2-NB590], the “NanoBRET Fold Response” value on EDNRA (setting [1]) was 1.09; on EDNRA (setting [2]), 0.94; on FZD4 (setting [1]), 1.12; on FZD4 (setting [2]), 1.19; at TBXA2R (tracer at 0.1μM), 0.90; on TBXA2R (tracer at 1μM) it was 1.01.
For `O=C(CCOCCOCCOCCOCCNC(=O)CCc1ccc2n1[B-](F)(F)[N+]1=C(c3ccc[nH]3)C=CC1=C2)NCCCN1CCN(C2=Nc3cc(Cl)ccc3Nc3ccccc32)CC1` [Clozapine-a-2-NB590], the “NanoBRET Fold Response” value on EDNRA (EDNRA, 0.1μM tracer) is on record as 1.04; at EDNRA (EDNRA, 1μM tracer), 0.90; at FZD4 (FZD4, 0.1μM tracer) it was 1.20; at FZD4 (FZD4, 1μM tracer) it was 0.95; at TBXA2R (TBXA2R, 0.1μM tracer), 1.08; on TBXA2R (TBXA2R, 1μM tracer), 1.08.
`CN1CCN(C2=Nc3cc(Cl)ccc3Nc3ccc(CNC(=O)CCOCCOCCOCCOCCNC(=O)CCc4ccc5n4[B-](F)(F)[N+]4=C(c6ccc[nH]6)C=CC4=C5)cc32)CC1` [Clozapine-b-2-NB590]: the “NanoBRET Fold Response” value at EDNRA (EDNRA, 0.1μM tracer) was 0.99; at EDNRA (EDNRA, 1μM tracer), 1.03; on FZD4 (FZD4, 0.1μM tracer) it was 0.99; on FZD4 (FZD4, 1μM tracer), 1.03; on TBXA2R (TBXA2R, 0.1μM tracer), 0.98; at TBXA2R (TBXA2R, 1μM tracer) it was 1.08.
For `Cc1nc2n(c(=O)c1CCN1CCC(c3noc4cc(F)ccc34)CC1)CCCC2OC(=O)NCCOCCOCCOCCOCCNC(=O)CCc1ccc2n1[B-](F)(F)[N+]1=C(c3ccc[nH]3)C=CC1=C2` (stereo not drawn) [Risperidone-2-NB590], the “NanoBRET Fold Response” value on EDNRA (EDNRA, tracer 0.1μM) is on record as 1.04; at EDNRA (EDNRA, tracer 1μM) it was 0.97; on FZD4 (FZD4, tracer 0.1μM), 1.14; at FZD4 (FZD4, tracer 1μM) it was 1.01; on TBXA2R (TBXA2R, tracer 0.1μM), 0.93; on TBXA2R (TBXA2R, tracer 1μM), 1.01.
